Consider 1 molecule from publication PMC12300743, “Unveiling the Solvent Effect: DMSO Interaction with Human Nerve Growth Factor and Its Implications for Drug Discovery” (Molecules, 2025).

The target of the assay is T1, hNGF (Homo sapiens, UniProt P01138).
T1 construct: gene NGF; homodimer; amine-coupled to the GCI chip
Put plainly: grating-coupled interferometry (Creoptix WAVE-delta, waveRAPID), hNGF immobilised by amine coupling. The format is binding.

T1 sequence (P01138 122-239): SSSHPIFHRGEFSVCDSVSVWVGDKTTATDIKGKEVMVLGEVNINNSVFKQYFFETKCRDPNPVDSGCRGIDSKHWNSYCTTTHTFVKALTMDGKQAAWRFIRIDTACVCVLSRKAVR

One may read the Kd as the free concentration of one partner at which half of the binding sites on the other are occupied at equilibrium, for simple one-to-one binding. A low value points to a tighter complex. For `C[S+](C)[O-]` [DMSO], the Kd was about 2100 µM.
